Results reported in US20220265814A1, “R[…] FOR CORONA VIRUS DISEASE 19 AND COMBINATION THERAPY USING THE SAME” (priority 2021, published 2022).

Legend:
Type in all cases: cell-based
[1] = test system: recombinant adenovirus (GFP tagging); test: antiviral activity against recombinant adenovirus (GFP fluorescence intensity) in HEK293A cells; conditions: for inhibition at 50 µM: unidentified adenovirus, HEK293-A, 72 h, read-out: virus inhibitory activity
Method: (§1) After dispensing HEK293A cells at 10,000 cells/well on a 96-well plate and stabilizing for 24 hours, the recombinant adenovirus (GFP tagging, MOI=0.5) prepared in Example and 18 compounds listed in Table 1 below (50 μM)) were treated and incubated for 24, 48 and 72 hours, the GFP fluorescence intensity (Excitation=485 nm, Emission=528 nm) was observed.

HEK293A cells = test: cell death / cytotoxicity in compound-treated HEK293A cells; conditions: 50 μM compound, after 72 hours of treatment
[2] = test system: Herpes simplex virus (HSV); test: antiviral activity against herpes simplex virus (HSV), same manner as the adenovirus test; conditions: 50 μM, after 24 hours, 48 hours and 72 hours (FIG. 14)
Method: as §1
The experiment was performed in the same manner as in the previous experiment, except that the virus type was changed to HSV and the antiviral activity was examined.

[3] = test system: COVID-19 virus (COVID19 recombinant adenovirus); test: COVID19 antibody-antigen polymerization reaction on combination treatment with ECCA A (Cyto X cell viability)

SMILES | inhibition at 50 µM [1] | cell death (HEK293A cells) | virus inhibitory activity (in words) ([1]; 50 μM compound, HEK293A cells, recombinant adenovirus MOI=0.5) | antiviral activity on HSV [2] | antigen-antibody polymerization reaction [3] | binding to the antigen fusion protein [3] | antiviral activity on adenovirus, compared among C2, C6, C8 and C10 ([1]; 50 μM, after 24 hours, 48 hours and 72 hours (FIG. 13))
C=C(C)[C@@H]1CC[C@]2(C(=O)O)CC[C@]3(C)[C@H](CC[C@@H]4[C@@]5(C)[C@@H](C(=O)O)[C@H](O)C(C)(C)[C@@H]5CC[C@]43C)[C@@H]12 [Compound C2, Ceanothic acid] | ≥ 50% | – | – | – | – | – | –
C=C(C)[C@@H]1CC[C@]2(C(=O)O)CC[C@]3(C)[C@H](CC[C@@H]4[C@@]5(C)C[C@@H](OC(=O)/C=C/c6ccc(O)cc6)[C@H](O)C(C)(C)[C@@H]5CC[C@]43C)[C@@H]12 [Compound C4, 2-O-E-p-coumaroyl alphitolic acid] | – | 100% | excellent virus inhibitory activity | – | – | – | –
C=C(C)[C@@H]1CC[C@]2(C(=O)O)CC[C@]3(C)[C@H](CC[C@@H]4[C@@]5(C)CC[C@H](O)C(C)(C)[C@@H]5CC[C@]43C)[C@@H]12 [Compound C10, ECCA A] | ≥ 50% | – | – | most excellent | effective antigen-antibody polymerization reaction was confirmed | excellent | most excellent
